Laboratory results from ChEMBL document CHEMBL4680303, “Amine skeleton-based c-di-GMP derivatives as biofilm formation inhibitors” (Bioorg Med Chem Lett, 2021).
Active and inactive are the calls of the source. No cut-off for these calls is given here.

What was measured:
Escherichia coli [1] = test: Antibacterial activity against Escherichia coli DH5alpha assessed as bacterial cell density at 500 uM relative to control; format: functional, DH5[alpha]
Pseudomonas aeruginosa [2] = test: Antibacterial activity against Pseudomonas aeruginosa NBRC13275 assessed as bacterial cell density at 500 uM relative to control; format: functional
Staphylococcus aureus [3] = test: Antibacterial activity against Staphylococcus aureus NBRC13276 assessed as bacterial cell density at 500 uM relative to control; format: functional
Streptococcus mutans [4] = test: Antibacterial activity against Streptococcus mutans NBRC13955 assessed as bacterial cell density at 500 uM relative to control; format: functional
Escherichia coli [5] = test: Antibiofilm activity against Escherichia coli DH5alpha assessed as inhibition of biofilm formation at 500 uM incubated for 24 hrs by crystal violet staining based microtiter plate reader assay relative to control; values are per cent of control; conditions: DH5[alpha]
Streptococcus mutans [6] = test: Antibiofilm activity against Streptococcus mutans NBRC13955 assessed as inhibition of biofilm formation at 500 uM incubated for 24 hrs by crystal violet staining based microtiter plate reader assay relative to control; values are per cent of control; conditions: NBRC13955, 24 h
Pseudomonas aeruginosa [7] = test: Antibiofilm activity against Pseudomonas aeruginosa NBRC13275 assessed as inhibition of biofilm formation at 500 uM incubated for 6 hrs by crystal violet staining based microtiter plate reader assay relative to control; values are per cent of control; conditions: NBRC13275, 6 h
Staphylococcus aureus [8] = test: Antibiofilm activity against Staphylococcus aureus NBRC13276 assessed as inhibition of biofilm formation at 500 uM incubated for 24 hrs by crystal violet staining based microtiter plate reader assay relative to control; values are per cent of control; conditions: NBRC13276, 24 h
[9] = Growth inhibition of Staphylococcus aureus NBRC13276 at 1000 uM
Pseudomonas aeruginosa [10] = test: Antimicrobial activity against Pseudomonas aeruginosa assessed as inhibition of flagella synthesis relative to control; format: functional, organism-based

| SMILES | Activity (Escherichia coli [1]) [%] | Activity (Pseudomonas aeruginosa [2]) [%] | Activity (Staphylococcus aureus [3]) [%] | Activity (Streptococcus mutans [4]) [%] | biofilm formation (% of control) at 500 µM (Escherichia coli [5]) [%] | biofilm formation (% of control) at 500 µM (Streptococcus mutans [6]) [%] | biofilm formation (% of control) at 500 µM (Pseudomonas aeruginosa [7]) [%] | biofilm formation (% of control) at 500 µM (Staphylococcus aureus [8]) [%] | growth inhibition (GI) [9] | Activity (Pseudomonas aeruginosa [10]) |
| --- | --- | --- | --- | --- | --- | --- | --- | --- | --- | --- |
| Nc1nc2c(ncn2[C@@H]2O[C@@H]3COP(=O)(O)O[C@H]4[C@@H](O)[C@H](n5cnc6c(=O)[nH]c(N)nc65)O[C@@H]4COP(=O)(O)O[C@H]3[C@H]2O)c(=O)[nH]1 | 76 | 78 | 106 | 98 | 81 | 18 | 48 | 123 | – | – |
| CC(C)C(=O)N(CCNC(=O)Cn1cnc2c(=O)[nH]c(N)nc21)CCNC(=O)Cn1cnc2c(=O)[nH]c(N)nc21 | 97 | 98 | 92 | 104 | 107 | 147 | 83 | 103 | – | – |
| CCC(=O)N1CCN(C(=O)Cn2cnc3c(=O)[nH]c(N)nc32)CCN(C(=O)CC)CCN(C(=O)Cn2cnc3c(=O)[nH]c(N)nc32)CC1 | 105 | 118 | 124 | 117 | 153 | 46 | 76 | 76 | – | – |
| NCCN(CCNC(=O)Cn1cnc2c(=O)[nH]c(N)nc21)C(=O)Cn1cnc2c(=O)[nH]c(N)nc21 | 95 | 116 | 124 | 98 | 104 | 87 | 103 | 87 | – | – |
| Nc1nc2c(ncn2CC(=O)NCCN(CCNC(=O)Cn2cnc3c(=O)[nH]c(N)nc32)CC(=O)O)c(=O)[nH]1 | 95 | 126 | 99 | 188 | 138 | 78 | 82 | 87 | – | – |
| Nc1nc2c(ncn2CC(=O)N2CCN(CC(=O)O)CCN(C(=O)Cn3cnc4c(=O)[nH]c(N)nc43)CCN(CC(=O)O)CC2)c(=O)[nH]1 | 85 | 90 | 117 | 105 | 83 | 90 | 82 | 74 | – | – |
| Nc1nc2c(ncn2CC(=O)N2CCNCCN(C(=O)Cn3cnc4c(=O)[nH]c(N)nc43)CCNCC2)c(=O)[nH]1 | 93 | 100 | 108 | 138 | 133 | 96 | 85 | 89 | – | – |
| CC(C)C(=O)N1CCN(C(=O)Cn2cnc3c(=O)[nH]c(N)nc32)CCN(C(=O)C(C)C)CCN(C(=O)Cn2cnc3c(=O)[nH]c(N)nc32)CC1 | 559 | 313 | 267 | 206 | 118 | 88 | 114 | 87 | – | – |
| Nc1nc2c(ncn2CC(=O)N2CCN(C(=O)OCc3ccccc3)CCN(C(=O)Cn3cnc4c(=O)[nH]c(N)nc43)CCN(C(=O)OCc3ccccc3)CC2)c(=O)[nH]1 | 91 | 105 | 111 | 143 | 138 | 17 | 86 | 80 | – | – |
| CC(=O)NCCNCCNC(=O)Cn1cnc2c(=O)[nH]c(N)nc21 | 85 | 119 | 100 | 92 | 108 | 101 | 99 | 135 | – | – |
| Nc1nc2c(ncn2CC(=O)NCCNCCNC(=O)Cn2cnc3c(=O)[nH]c(N)nc32)c(=O)[nH]1 | 95 | 112 | 102 | 109 | 99 | 98 | 87 | 42 | – | – |
| CC(=O)N(CCNC(=O)Cn1cnc2c(=O)[nH]c(N)nc21)CCNC(=O)Cn1cnc2c(=O)[nH]c(N)nc21 | 101 | 119 | 108 | 154 | 116 | 87 | 104 | 76 | – | – |
| Nc1nc2c(ncn2CC(=O)N2CCNCCN(C(=O)Cn3cnc4c(=O)[nH]c(N)nc43)CC2)c(=O)[nH]1 | 95 | 105 | 103 | 121 | 103 | 92 | 105 | 92 | – | – |
| CC(=O)N1CCN(C(=O)Cn2cnc3c(=O)[nH]c(N)nc32)CCN(C(C)=O)CCN(C(=O)Cn2cnc3c(=O)[nH]c(N)nc32)CC1 | 52 | 90 | 150 | 136 | 36 | 40 | 60 | 20 | Non-Toxic | inactive |
| CCC(=O)N(CCNC(=O)Cn1cnc2c(=O)[nH]c(N)nc21)CCNC(=O)Cn1cnc2c(=O)[nH]c(N)nc21 | 95 | 98 | 92 | 106 | 97 | 125 | 94 | 85 | – | – |
